Data set [1] deals with adenovirus 8 (AdV8). The data set can be described thus: CPE reduction assay, adenovirus 8. The format is cell-based, human adenovirus. The note with it: unidentified adenovirus, unit not given in Table 2 (Table 1 in μM). The procedure:
(§1) Similar experiments were carried out with filociclovir against adenovirus 6, adenovirus 7, and adenovirus 8.

The test system of data set [2] is adenovirus. Put plainly: Dose-dependent inhibition of adenovirus infection (summary statement). In kind it is cell-based. The note with it: unidentified adenovirus.
In data set [3] the test system is AdV5. Put plainly: Immunofluorescence assay (DBP and hexon staining), AdV5-infected A549 cells. In kind it is cell-based, human adenovirus. The note with it: 27 hours post-infection. The protocol:
Human A549 cells on glass coverslips in 6-well plates were infected at an MOI of 5 PFU/cell with either AdV5 or AdV6 or were mock-infected. After 1 hour, filociclovir was added to a final concentration of 0, 4, 10, or 40 μM. At 27 hours post-infection, the A549 cells were fixed in paraformaldehyde (3.7% in PBS) and permeabilized with methanol. Cells were stained for the Adenovirus DNA-binding protein and adenovirus hexon. DBP staining will be […] and uniform during early AdV infection (prior to AdV DNA replication). DBP associates with replication centers as the infection progresses. The replication centers are initially small “dots” (each dot results from one incoming AdV genome). The replication centers will expand and “multiply” as DNA replication takes place. The nuclei become enlarged and misshapen as infection progresses. AdV hexon, the most abundant component of the AdV viral capsid, is not expressed until after DNA replication is taking place and is therefore considered to be a “late” AdV protein.

Data set [4] relates to adenovirus 4 (AdV4). Put plainly: Efficacy against adenovirus 4 (data not shown).
For data set [5], the system named is adenovirus 37 (AdV37). Put plainly: Efficacy against adenovirus 37 (data not shown).
Data set [6] deals with adenovirus 7 (AdV7). Put plainly: CPE reduction assay, adenovirus 7. The format is cell-based, human adenovirus. The procedure: as §1
Data set [7] concerns adenovirus 19 (AdV19). Put plainly: Efficacy against adenovirus 19 (data not shown).
The nature of data set [8]: Pharmacokinetics of filociclovir in immunosuppressed hamsters. The conditions noted are these: 6 hours after administration. The format is in vivo, Syrian hamsters. The procedure: In order to test the pharmacokinetics of filociclovir, we use a Syrian male hamster model of adenovirus infection. Syrian hamsters were given either an oral (p.o. 50 mg/kg) or intravenous (i.v. 10 mg/kg) dose of filociclovir. […] For i.v. administration, filociclovir was dissolved in DMSO (Sigma D2650) and then diluted with water to a final concentration of 5 mg/ml for filociclovir and 75% DMSO. The dosing solutions were prepared one day before use and stored at 4° C. Male Syrian hamsters were purchased from Envigo (Hackensack, N.J.) at ˜100 g body weight. […] The animals received three injections of CP before the administration of filociclovir. Two groups of animals (12 hamsters/group) were used for the two routes of administrations. In addition, three untreated animals (the same three hamsters for both routes) served as mock controls. The p.o. and i.v. experiments were performed on two consecutive days. As the hamsters weighed approximately 100 g, (+/−10%), they were administered 1 ml and 0.2 ml for the p.o. and i.v. routes, respectively, to achieve the desired dose. For both routes, 3 hamsters were sacrificed at 0.5, 1, 3, and 6 hr post dosing. […]

The test system of data set [9] is Human AdV6. Put plainly: High dose filociclovir against intravenously administered AdV6 in immunosuppressed hamsters (Example 5). The note with it: for mortality: p=0.0124 vs AdV6+Vehicle; for virus burden in the liver: TCID50. The procedure:
Four dose levels were tested: 10, 30, 60, and 100 mg/kg p.o. q.d. The highest dose was determined based on rat toxicology data.
All hamsters were immunosuppressed using cyclophosphamide (CP). CP was administered intraperitoneally at a dose of 140 mg/kg, and then twice weekly at a dose of 100 mg/kg.
Filociclovir, in powdered form, was suspended in 0.4% carboxymethyl cellulose (Sigma C5678) at 1, 3, 6, and 10 mg/ml and sonicated to visual homogeneity and aliquots stored at 4° C. Aliquots were allowed to equilibrate to room temperature before dosing. Hamsters weighing approximately 100 g were dosed with a 1 ml volume of the appropriate suspension for the 10, 30, 60, and 100 mg/kg dose levels. References to “vehicle” refers to 0.4% carboxymethyl cellulose
The hamsters were divided into 8 groups, 15 hamsters/group, (with the exception of Group 2, which had only 5 hamsters; see Table 3), immunosuppressed, and then injected i.v. with vehicle (Groups 1-2) or 2×10^10 PFU/kg of AdV6 (Groups […]). Groups 1 and 3 received drug vehicle (p.o. q.d.), Group 4 received 10 mg/kg filociclovir (p.o. q.d.), Group 5 received 30 mg/kg filociclovir (p.o. q.d.), Group 6 received 60 mg/kg filociclovir (p.o. q.d.), Groups 2 and 7 received 100 mg/kg filociclovir (p.o. q.d.), and Group 8 received cidofovir (20 mg/kg, 3 times weekly). For all groups, drug administration started 1 day before challenge, and continued according to the schedule above for the duration of the study.
The body weights and any signs of morbidity of the animals were recorded daily. At 5 days post challenge, 5 hamsters (designated at the start of the experiment) from each group (with the exception of Group 2) were sacrificed, and gross pathological observation was performed. Serum and liver samples were collected and the virus burden in liver was determined by a TCID50 assay, and the serum was analyzed for transaminase levels. The remaining 10 hamsters were sacrificed at 14 days post challenge. Hamsters that became visually moribund before Day 14 were sacrificed as needed. In addition to the hamsters observed to be moribund, all hamsters that lost more than 20% of their original body weight were also sacrificed. For the hamsters sacrificed at the conclusion of the experiment and those sacrificed as moribund, serum and liver tissues were collected and banked for possible determination of serum transaminase levels and virus burden in the liver. Liver tissue was preserved in formalin for possible histopathological examination.

On to `Nc1nc2c(ncn2/C=C2/CC2(CO)CO)c(=O)[nH]1` [FCV, 2-amino-9-{(Z)-[2,2-bis(hydroxymethyl)cyclopropylidene]methyl}-3,9-dihydro-6H-purin-6-one], for which the EC50 was 2.45 µM in [1] and 1.04 µM in data set [6] (Human mastadenovirus B, unit not given in Table 2 (Table 1 in μM)). Moreover, the IC50 in data set [2] was at most 5000 nM. Besides, the hexon-positive cells entry in [3] (AdV5, 4 μM) is “Some hexon-positive cells”; in data set [3] (AdV5, 10 μM), “extremely few hexon-positive cells”; in [3] (AdV5, 40 μM), “No hexon-positive cells”. Also, the “treat or prevent infection” value in data set [4], in data set [5] and in data set [7] was “effective” throughout. In [6], the CC50/EC50 is recorded as above 144. Further, the detectability after administration entry in data set [8] (i.v. 10 mg/kg) and in [8] (p.o. 50 mg/kg) was “still detectable” throughout. Further, the body weight loss result in [9] (10 mg/kg p.o. q.d.) and in data set [9] (30 mg/kg p.o. q.d.) was “reversed” each time. Further, the mortality result in data set [9] (10 mg/kg p.o. q.d.) and in data set [9] (30 mg/kg p.o. q.d.) was “prevented mortality” in each case. In addition, the “virus burden in the liver” value in data set [9] (10 mg/kg, 5 days post challenge) was “one animal in the AdV6+10 mg/kg filociclovir group with a very low liver virus burden”; in [9] (30 mg/kg, 5 days post challenge), “nondetectable level”. Also, the “toxicity for AdV6-infected hamsters” value in data set [9] (60 mg/kg p.o. q.d.) and in data set [9] (100 mg/kg p.o. q.d.) was “toxic” each time. Further, in [9] (5 days post challenge, filociclovir p.o. q.d. groups, CDV 20 mg/kg 3 times weekly), the “animals with elevated serum transaminase levels (ALT)” value was “none”. Besides, the “kidney pathology at day 5 sacrifice” value in data set [9] (AdV6+60 mg/kg) and in data set [9] (AdV6+100 mg/kg) was “extensive kidney pathology” throughout.

Values taken from patent US20220168310A1, “INHIBITION OF ADENOVIRUS WITH FILOCICLOVIR” (Microbiotix, Inc., priority 2019, published 2022).
